According to US6949660B2, “Chiral (1pyrrolino) fullerene derivatives” (Seth Nanotechnology, Incorporated, priority 1995, dated 2005):

How the values were obtained:
[1] = system: superoxide radicals (O2−); assay: Superoxide radical scavenging: xanthine/xanthine oxidase system, cytochrome C reduction, absorption at 550 nm; format: biochemical; details: xanthine 50 μM, cytochrome C 10 μM, phosphate buffer pH 7.8
Description: Detection of high free radical scavenging potency of hydrophilic fullerene derivatives. […] Therefore, the detected optical absorption intensity of the reduced cytochrome (Fe^+2) C can be correlated to the quantity of superoxide radicals reacted with cytochrome (Fe^+3) C. Scavenging of superoxide radicals by hydrophilic fullerene derivatives in the bio-medium inhibits the formation of reduced cytochrome (Fe+2) C and thus reduce the optical absorption at 550 nm.
In one experiment, xanthine (50 μM) was added to a physiological medium (3 ml) containing cytochrome C (10 μM), ethylenediaminetetraacetic acid (EDTA) (10 mM) and a phosphate buffer (50 mM) at pH 7.8. The mixture was then added xanthine oxidase in quantity enough to induce 0.025 unit of optical absorption at 550 nm per 5 min (Mc Cord, et al. J. Biol. Chem. 1969, 244, 6049.). Subsequently, 1,3-dimethyl-N-succinamitofulleropyrrolidine-1,3-dicarboxylic acid, C60[C(CH3)CO2H]2NCO—CH2CH2CO2H, prepared in Example 12, in a concentration of 0, 5.0, 10.0, 25.0, 50, and 100 μM was added in separated runs while the absorption intensity of the reduced cytochrome C was recorded. A rapid decrease of reduced cytochrome C to roughly 50% and 20% of the control value was obtained with the dose of 1,3-dimethyl-N-succinamitofulleropyrrolidine-1,3-dicarboxylic acid as 25 and 100 μM, respectively.

[2] = system: Fibrosarcoma tumor cells (CCRC 60037); assay: Growth inhibition of fibrosarcoma tumor cells upon photo-irradiation, MTT assay; format: cell-based; details: compound 2.5 μM for 24 h; fluorescence light (27 W) photo-irradiation more than 20 min; then 48 h at 37° C.
Description: The growth inhibitory effect of 1,3-dimethyl-N-succinamitofulleropyrrolidine-1,3-dicarboxylic acid, C60[C(CH3)CO2H]2NCO—CH2CH2CO2H, which was prepared as described in Example 12, on fibrosarcoma tumor cells upon photo-irradiation was studied in vitro. Fibrosarcoma tumor cells (0.5 ml, 4×10^4/ml, CCRC 60037) were grown in the MEM medium in a 24-well plate for a period of 24 h. It was treated by 1,3-dimethyl-N-succinamitofulleropyrrolidine-1,3-dicarboxylic acid in a concentration of 0.0, 2.5, 5.0, 7.5, and 10.0 μM for a period of 24 hours. The MEM medium was removed and replaced by the fresh medium (1.0 ml). The cell-containing plates were exposed to a fluorescence light source (27 W) in a distance of 5-6 cm for a period of 10, 20, 40, and 60 min. The plates were then kept in incubator at 37° C. a period of 48 h. Measurement of cell viability in each plate was performed by the MTT assay using optical absorption at 540 nm.

Substance: 1,3-dimethyl-N-succinamitofulleropyrrolidine-1,3-dicarboxylic acid
- reduced cytochrome C, % of the control value ([1]; compound 25 μM): roughly 50%
- reduced cytochrome C, % of the control value ([1]; compound 100 μM): ~20%
- tumor cell count (cell viability, MTT, absorption at 540 nm) [2]: rapid decrease in the tumor cell count
